Data from patent US9932314B2, “Pyrazole compounds and their use as T-type calcium channel blockers” (IDORSIA PHARMACEUTICALS LTD, priority 2015, dated 2018).

Molecular target: T1, voltage-dependent T-type calcium channel subunit alpha-1G (Cav3.2) (Homo sapiens, UniProt O95180)
T1 construct: expressed in transfected cells; host or cells: HEK293
Assay: FLIPR calcium flux assay, HEK293 cells recombinantly expressing Cav3.2
Assay type: cell-based
Settings: Cav3.2-channel, Fluo-4-AM, 3 min incubation, stimulation with 10 mM CaCl2
In short: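 Calcium influx was triggered by adding CaCl2 to 10 mM final, 3 min after compounds in tetraethylammonium-based buffer, pH 7.2, reached Fluo-4-AM-loaded recombinant HEK293 cells. The integrated kinetic fluorescence signal per concentration gave concentration-response curves by non-linear sigmoidal regression.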

T1 sequence (O95180 whole entry): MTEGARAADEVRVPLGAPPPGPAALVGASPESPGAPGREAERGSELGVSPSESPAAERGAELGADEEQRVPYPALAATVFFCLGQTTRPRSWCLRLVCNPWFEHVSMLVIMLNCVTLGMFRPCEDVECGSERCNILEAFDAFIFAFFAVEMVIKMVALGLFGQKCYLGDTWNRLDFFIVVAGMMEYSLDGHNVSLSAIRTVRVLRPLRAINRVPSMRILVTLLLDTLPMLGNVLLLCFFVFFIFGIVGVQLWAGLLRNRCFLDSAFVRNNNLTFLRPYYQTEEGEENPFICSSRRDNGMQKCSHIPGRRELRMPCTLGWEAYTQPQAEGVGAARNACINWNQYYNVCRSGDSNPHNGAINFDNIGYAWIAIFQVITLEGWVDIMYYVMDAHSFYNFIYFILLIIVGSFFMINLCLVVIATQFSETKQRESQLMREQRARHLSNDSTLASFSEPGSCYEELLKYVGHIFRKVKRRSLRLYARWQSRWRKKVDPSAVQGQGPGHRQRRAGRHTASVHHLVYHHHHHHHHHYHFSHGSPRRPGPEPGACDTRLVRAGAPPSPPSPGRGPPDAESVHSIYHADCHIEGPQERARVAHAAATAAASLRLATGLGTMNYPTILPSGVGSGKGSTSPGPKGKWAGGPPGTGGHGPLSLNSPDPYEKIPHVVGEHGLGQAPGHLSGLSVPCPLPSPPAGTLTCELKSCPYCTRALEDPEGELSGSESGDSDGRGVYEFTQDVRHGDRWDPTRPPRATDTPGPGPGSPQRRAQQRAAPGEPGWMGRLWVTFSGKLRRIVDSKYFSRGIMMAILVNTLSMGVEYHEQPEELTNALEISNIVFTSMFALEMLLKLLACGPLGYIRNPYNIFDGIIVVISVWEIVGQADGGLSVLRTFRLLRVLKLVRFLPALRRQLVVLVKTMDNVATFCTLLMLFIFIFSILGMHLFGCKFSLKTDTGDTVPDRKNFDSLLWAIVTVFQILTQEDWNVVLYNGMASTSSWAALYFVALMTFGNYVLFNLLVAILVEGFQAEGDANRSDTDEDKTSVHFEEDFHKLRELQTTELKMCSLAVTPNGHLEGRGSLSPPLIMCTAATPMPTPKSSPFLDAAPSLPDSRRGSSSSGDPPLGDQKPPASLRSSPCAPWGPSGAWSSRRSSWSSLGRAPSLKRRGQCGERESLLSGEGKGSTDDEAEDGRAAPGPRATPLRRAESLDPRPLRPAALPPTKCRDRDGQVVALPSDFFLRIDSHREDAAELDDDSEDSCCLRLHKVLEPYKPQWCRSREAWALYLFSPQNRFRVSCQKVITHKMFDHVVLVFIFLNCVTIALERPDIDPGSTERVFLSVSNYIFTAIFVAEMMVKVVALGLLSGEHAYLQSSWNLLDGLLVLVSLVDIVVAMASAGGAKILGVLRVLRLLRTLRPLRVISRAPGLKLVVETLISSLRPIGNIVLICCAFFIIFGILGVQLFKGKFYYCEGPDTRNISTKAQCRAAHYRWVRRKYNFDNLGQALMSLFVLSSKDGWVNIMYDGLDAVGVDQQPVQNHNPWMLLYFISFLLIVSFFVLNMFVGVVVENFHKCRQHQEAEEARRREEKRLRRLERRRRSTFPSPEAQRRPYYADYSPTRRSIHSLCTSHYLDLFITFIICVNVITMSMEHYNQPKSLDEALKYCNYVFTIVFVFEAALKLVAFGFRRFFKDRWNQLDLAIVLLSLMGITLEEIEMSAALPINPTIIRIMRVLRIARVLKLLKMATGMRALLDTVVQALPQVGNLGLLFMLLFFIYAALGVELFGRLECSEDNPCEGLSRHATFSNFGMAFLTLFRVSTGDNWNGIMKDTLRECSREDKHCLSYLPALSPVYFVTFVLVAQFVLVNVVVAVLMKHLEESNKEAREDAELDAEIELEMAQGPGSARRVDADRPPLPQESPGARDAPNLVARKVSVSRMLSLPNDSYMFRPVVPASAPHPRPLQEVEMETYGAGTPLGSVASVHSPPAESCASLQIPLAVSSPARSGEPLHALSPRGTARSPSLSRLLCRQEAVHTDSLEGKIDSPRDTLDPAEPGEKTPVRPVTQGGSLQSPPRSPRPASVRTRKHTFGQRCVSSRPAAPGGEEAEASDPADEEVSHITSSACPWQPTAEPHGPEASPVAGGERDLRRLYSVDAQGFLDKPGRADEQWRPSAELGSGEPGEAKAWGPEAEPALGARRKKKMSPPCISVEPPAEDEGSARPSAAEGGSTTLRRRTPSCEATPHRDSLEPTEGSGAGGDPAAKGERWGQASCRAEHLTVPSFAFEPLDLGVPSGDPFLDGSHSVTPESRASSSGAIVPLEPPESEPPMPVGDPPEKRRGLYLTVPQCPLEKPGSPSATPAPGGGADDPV

Row | Structure (SMILES) | IC50
1 | N#Cc1c(F)cc(Cn2ccc(NC(=O)Cc3ccc(OCC4(F)COC4)cc3)n2)cc1F [Example 361, N-[1-(4-Cyano-3,5-difluoro-benzyl)-1H-pyrazol-3-yl]-2-[4-(3-fluoro-oxetan-3-ylmethoxy)-phenyl]-acetamide] | 80 nM
2 | CC1(COc2ccc(CC(=O)Nc3ccn(Cc4cc(F)c(C#N)c(F)c4)n3)cc2)COC1 [Example 362, N-[1-(4-Cyano-3,5-difluoro-benzyl)-1H-pyrazol-3-yl]-2-[4-(3-methyl-oxetan-3-ylmethoxy)-phenyl]-acetamide] | 117 nM
3 | CC1(COc2ccc(CC(=O)Nc3ccn(Cc4cc(F)c(C#N)c(F)c4)n3)cc2)CC(F)(F)C1 [Example 364, N-[1-(4-Cyano-3,5-difluoro-benzyl)-1H-pyrazol-3-yl]-2-[4-(3,3-difluoro-1-methyl-cyclobutylmethoxy)-phenyl]-acetamide] | 62 nM
4 | Cc1ccc(Cn2ccc(NC(=O)Cc3ccc(N4CCC(F)(F)C4)nc3)n2)nc1C#N [Example 366, N-[1-(6-Cyano-5-methyl-pyridin-2-ylmethyl)-1H-pyrazol-3-yl]-2-[6-(3,3-difluoro-pyrrolidin-1-yl)-pyridin-3-yl]-acetamide] | 147 nM
5 | Cc1ccc(Cn2ccc(NC(=O)Cc3ccc4c(c3)c(C)nn4C)n2)nc1C#N [Example 368, N-[1-(6-Cyano-5-methyl-pyridin-2-ylmethyl)-1H-pyrazol-3-yl]-2-(1,3-dimethyl-1H-indazol-5-yl)-acetamide] | 301 nM
6 | Cc1ccc(Cn2ccc(NC(=O)Cc3ccc4c(c3)c(C)cn4C)n2)nc1C#N [Example 369, N-[1-(6-Cyano-5-methyl-pyridin-2-ylmethyl)-1H-pyrazol-3-yl]-2-(1,3-dimethyl-1H-indol-5-yl)-acetamide] | 64 nM
7 | CCn1ncc2cc(CC(=O)Nc3ccn(Cc4ccc(C)c(C#N)n4)n3)ccc21 [Example 370, N-[1-(6-Cyano-5-methyl-pyridin-2-ylmethyl)-1H-pyrazol-3-yl]-2-(1-ethyl-1H-indazol-5-yl)-acetamide] | 578 nM
8 | Cc1ccc(Cn2ccc(NC(=O)Cc3ccc(N4CCCC4)nc3)n2)nc1C#N [Example 373, N-[1-(6-Cyano-5-methyl-pyridin-2-ylmethyl)-1H-pyrazol-3-yl]-2-(6-pyrrolidin-1-yl-pyridin-3-yl)-acetamide] | 349 nM
9 | Cc1ccc(Cn2ccc(NC(=O)Cc3ccc(OC4CC(F)(F)C4)cc3)n2)nc1C#N [Example 374, N-[1-(6-Cyano-5-methyl-pyridin-2-ylmethyl)-1H-pyrazol-3-yl]-2-[4-(3,3-difluoro-cyclobutoxy)-phenyl]-acetamide] | 107 nM
10 | CC1(C)Cc2cc(CC(=O)Nc3ccn(Cc4ccc(C#N)cn4)n3)ccc2O1 [Example 378, N-[1-(5-Cyano-pyridin-2-ylmethyl)-1H-pyrazol-3-yl]-2-(2,2-dimethyl-2,3-dihydro-benzofuran-5-yl)-acetamide] | 249 nM
11 | CC1(C)COc2ccc(CC(=O)Nc3ccn(Cc4ccc(C#N)cn4)n3)cc21 [Example 379, N-[1-(5-Cyano-pyridin-2-ylmethyl)-1H-pyrazol-3-yl]-2-(3,3-dimethyl-2,3-dihydro-benzofuran-5-yl)-acetamide] | 658 nM
12 | CC1(C)Cc2ccc(CC(=O)Nc3ccn(Cc4ccc(C#N)cn4)n3)cc2O1 [Example 380, N-[1-(5-Cyano-pyridin-2-ylmethyl)-1H-pyrazol-3-yl]-2-(2,2-dimethyl-2,3-dihydro-benzofuran-6-yl)-acetamide] | 214 nM
13 | N#Cc1ccc(Cn2ccc(NC(=O)Cc3ccc(OCC(F)(F)F)c(F)c3)n2)nc1 [Example 382, N-[1-(5-Cyano-pyridin-2-ylmethyl)-1H-pyrazol-3-yl]-2-[3-fluoro-4-(2,2,2-trifluoro-ethoxy)-phenyl]-acetamide] | 114 nM
14 | COC1(c2ccc(CC(=O)Nc3ccn(Cc4ccc(C#N)cn4)n3)cc2)CC1 [Example 384, N-[1-(5-Cyano-pyridin-2-ylmethyl)-1H-pyrazol-3-yl]-2-[4-(1-methoxy-cyclopropyl)-phenyl]-acetamide] | 128 nM
15 | CC(C)c1ccc(CC(=O)Nc2ccn(Cc3cc(C(F)F)c(C#N)cn3)n2)cc1 [Example 386, N-[1-(5-cyano-4-difluoromethyl-pyridin-2-ylmethyl)-1H-pyrazol-3-yl]-2-(4-isopropyl-phenyl)-acetamide] | 69 nM
16 | CC1(C)COc2cc(CC(=O)Nc3ccn(Cc4ccc(C#N)cn4)n3)ccc21 [Example 387, N-[1-(5-Cyano-pyridin-2-ylmethyl)-1H-pyrazol-3-yl]-2-(3,3-dimethyl-2,3-dihydro-benzofuran-6-yl)-acetamide] | 122 nM
17 | N#Cc1cnc(Cn2ccc(NC(=O)Cc3ccc(C4(C(F)(F)F)CC4)cc3)n2)c(F)c1 [Example 389, N-[1-(5-Cyano-3-fluoro-pyridin-2-ylmethyl)-1H-pyrazol-3-yl]-2-[4-(1-trifluoromethyl-cyclopropyl)-phenyl]-acetamide] | 506 nM
18 | CC(C)Cc1ccc(CC(=O)Nc2ccn(Cc3ccc(C#N)cn3)n2)cc1C#N [Example 392, 2-(3-Cyano-4-isobutyl-phenyl)-N-[1-(5-cyano-pyridin-2-ylmethyl)-1H-pyrazol-3-yl]-acetamide] | 101 nM
19 | CC(C)c1ccc(CC(=O)Nc2ccn(Cc3ccc(N4CCC4)cn3)n2)cc1 [Example 394, N-[1-(5-Azetidin-1-yl-pyridin-2-ylmethyl)-1H-pyrazol-3-yl]-2-(4-isopropyl-phenyl)-acetamide] | 126 nM
20 | CC(C)c1ccc(CC(=O)Nc2ccn(Cc3ccc(N4CCCC4)cn3)n2)cc1 [Example 395, 2-(4-Isopropyl-phenyl)-N-[1-(5-pyrrolidin-1-yl-pyridin-2-ylmethyl)-1H-pyrazol-3-yl]-acetamide] | 315 nM
21 | CC(C)c1ccc(CC(=O)Nc2ccn(Cc3ccc(N4CCC(F)(F)C4)cn3)n2)cc1 [Example 396, N-{1-[5-(3,3-Difluoro-pyrrolidin-1-yl)-pyridin-2-ylmethyl]-1H-pyrazol-3-yl}-2-(4-isopropyl-phenyl)-acetamide] | 369 nM

Now those with a lower IC50, led by results:

Row | IC50 | Structure (SMILES)
22 | 51 nM | N#Cc1c(F)cc(Cn2ccc(NC(=O)Cc3ccc(OCC4CC(F)(F)C4)cc3)n2)cc1F [Example 363, N-[1-(4-Cyano-3,5-difluoro-benzyl)-1H-pyrazol-3-yl]-2-[4-(3,3-difluoro-cyclobutylmethoxy)-phenyl]-acetamide]
23 | 18 nM | N#Cc1nc(Cn2ccc(NC(=O)Cc3ccc(C4(C(F)(F)F)CC4)cc3)n2)ccc1F [Example 365, N-[1-(6-Cyano-5-fluoro-pyridin-2-ylmethyl)-1H-pyrazol-3-yl]-2-[4-(1-trifluoromethyl-cyclopropyl)-phenyl]-acetamide]
24 | 10 nM | Cc1cc(CC(=O)Nc2ccn(Cc3ccc(C)c(C#N)n3)n2)ccc1OCC(F)(F)F [Example 367, N-[1-(6-Cyano-5-methyl-pyridin-2-ylmethyl)-1H-pyrazol-3-yl]-2-[3-methyl-4-(2,2,2-trifluoro-ethoxy)-phenyl]-acetamide]
25 | 13 nM | Cc1ccc(Cn2ccc(NC(=O)Cc3ccc(C(C)(C)C)cc3)n2)nc1C#N [Example 371, 2-(4-tert-Butyl-phenyl)-N-[1-(6-cyano-5-methyl-pyridin-2-ylmethyl)-1H-pyrazol-3-yl]-acetamide]
26 | 38 nM | Cc1ccc(Cn2ccc(NC(=O)Cc3ccc(C4(C(F)(F)F)CC4)cc3)n2)nc1C#N [Example 372, N-[1-(6-Cyano-5-methyl-pyridin-2-ylmethyl)-1H-pyrazol-3-yl]-2-[4-(1-trifluoromethyl-cyclopropyl)-phenyl]-acetamide]
27 | 20 nM | CC(C)(c1ccc(CC(=O)Nc2ccn(Cc3ccc(C#N)cn3)n2)cc1)C(F)(F)F [Example 376, N-[1-(5-Cyano-pyridin-2-ylmethyl)-1H-pyrazol-3-yl]-2-[4-(2,2,2-trifluoro-1,1-dimethyl-ethyl)-phenyl]-acetamide]
28 | 25 nM | Cc1ccc(Cn2ccc(NC(=O)Cc3ccc(C4(C)CC4)cc3)n2)nc1C#N [Example 377, N-[1-(6-Cyano-5-methyl-pyridin-2-ylmethyl)-1H-pyrazol-3-yl]-2-[4-(1-methyl-cyclopropyl)-phenyl]-acetamide]
29 | 54 nM | Cc1ccc(CC(=O)Nc2ccn(Cc3ccc(C#N)cn3)n2)cc1OCC(F)(F)F [Example 381, N-[1-(5-Cyano-pyridin-2-ylmethyl)-1H-pyrazol-3-yl]-2-[4-methyl-3-(2,2,2-trifluoro-ethoxy)-phenyl]-acetamide]
30 | 44 nM | CC(C)c1ccc(CC(=O)Nc2ccn(Cc3ccc(C#N)c(C(F)F)n3)n2)cc1 [Example 385, N-[1-(5-Cyano-6-difluoromethyl-pyridin-2-ylmethyl)-1H-pyrazol-3-yl]-2-(4-isopropyl-phenyl)-acetamide]
31 | 47 nM | N#Cc1ccc(Cn2ccc(NC(=O)Cc3ccc(C4(C#N)CC(F)(F)C4)cc3)n2)nc1 [Example 390, 2-[4-(1-Cyano-3,3-difluoro-cyclobutyl)-phenyl]-N-[1-(5-cyano-pyridin-2-ylmethyl)-1H-pyrazol-3-yl]-acetamide]
32 | 2.1 nM | Cc1cc(CC(=O)Nc2ccn(Cc3ccc(F)c(C#N)n3)n2)ccc1OCC(F)(F)F [Example 391, N-[1-(6-Cyano-5-fluoro-pyridin-2-ylmethyl)-1H-pyrazol-3-yl]-2-[3-methyl-4-(2,2,2-trifluoro-ethoxy)-phenyl]-acetamide]
33 | 51 nM | CC(C)Cc1ccc(CC(=O)Nc2ccn(Cc3ccc(F)c(F)c3)n2)cc1C#N [Example 393, 2-(3-Cyano-4-isobutyl-phenyl)-N-[1-(3,4-difluoro-benzyl)-1H-pyrazol-3-yl]-acetamide]
34 | 44 nM | N#Cc1ccc(Cn2ccc(NC(=O)Cc3ccc(OCC4CC4)c(OC(F)(F)F)c3)n2)nc1 [Example 397, N-[1-(5-Cyano-pyridin-2-ylmethyl)-1H-pyrazol-3-yl]-2-(4-cyclopropylmethoxy-3-trifluoromethoxy-phenyl)-acetamide]
35 | 39 nM | O=C(Cc1ccc(OCC2CC2)c(OC(F)(F)F)c1)Nc1ccn(Cc2ccc(F)c(F)c2)n1 [Example 398, 2-(4-Cyclopropylmethoxy-3-trifluoromethoxy-phenyl)-N-[1-(3,4-difluoro-benzyl)-1H-pyrazol-3-yl]-acetamide]
